What all share (type): functional
Experiment [1] has as its system Mus musculus. In words: In vivo hypoglycemic activity after administration (50 mg/kg) in mice on day 7 was determined.
Experiment [2] in a line: Ratio of hypoglycemic activity in mice was tested on day 7.
Experiment [3] deals with Mus musculus. The experiment can be described thus: In vivo hypoglycemic activity after administration (50 mg/kg) in mice on day 0 was determined.
The test system of experiment [4] is Mus musculus. The experiment can be described thus: In vivo hypoglycemic activity after administration (40 mg/kg) in mice on day 0 was determined.
Experiment [5] concerns Mus musculus. The experiment can be described thus: In vivo hypoglycemic activity after administration (40 mg/kg) in mice on day 7 was determined.

The structures appear in SMILES notation.

The text below walks through data of ChEMBL document CHEMBL1132521, “Synthesis and hypoglycemic effect of chrysin derivatives” (Bioorg Med Chem Lett, 1999).

As to `O=C(/C=C/c1ccccc1)Oc1cc(O)c2c(=O)cc(-c3ccccc3)oc2c1`, the values for the Blood glucose in experiment [1] and in experiment [3] were 407.9 mg/dL and 440.6 mg/dL, respectively. Also, in experiment [2], the Ratio came to 92.6.

On to `COc1cc(OC)c2c(=O)cc(-c3ccccc3)oc2c1` [CHRYSIN DIMETHYL ETHER], for which the Blood glucose in experiment [4] stood at 444.4 mg/dL; in experiment [5], 399.5 mg/dL. The Ratio in experiment [2] is given as 89.9.

`CC(=O)Oc1ccccc1C(=O)Oc1cc(O)c2c(=O)cc(-c3ccccc3)oc2c1`: the Blood glucose in experiment [4] was found to be 489.3 mg/dL; in experiment [5] it was 500.9 mg/dL. For the same compound, the Ratio in experiment [2] was determined as 102.4.

For the compound `COc1ccc(/C=C/C(=O)Oc2cc(O)c3c(=O)cc(-c4ccccc4)oc3c2)cc1`, the Blood glucose is 475.9 mg/dL in experiment [4] and 333.3 mg/dL in experiment [5]. For the same compound, the Ratio in experiment [2] is on record as 70.

In the case of `CCCOc1cc(O)c2c(=O)cc(-c3ccccc3)oc2c1`, the figures for the Blood glucose in experiment [1] and in experiment [3] were 237.8 mg/dL and 400 mg/dL, respectively. Besides, the Ratio in experiment [2] was found to be 59.5.

Regarding `COc1cc(O)c2c(=O)cc(-c3ccccc3)oc2c1` [TECHTOCHRYSIN], the Blood glucose in experiment [1] was 399.6 mg/dL; in experiment [3] it was 455 mg/dL. Moreover, in experiment [2], the Ratio amounted to 87.8.

Turning to `CCCCCCCCCCCCOc1cc(O)c2c(=O)cc(-c3ccccc3)oc2c1`, the results for the Blood glucose in experiment [1] and in experiment [3] were 381.3 mg/dL and 465.6 mg/dL, respectively. The Ratio in experiment [2] is on record as 81.9.

Consider `O=C(Cc1ccccc1)Oc1cc(O)c2c(=O)cc(-c3ccccc3)oc2c1`, for which the Blood glucose in experiment [1] came out at 515.6 mg/dL; in experiment [3] it was 496.2 mg/dL. Moreover, the Ratio in experiment [2] was determined as 103.9.

With `O=C(Oc1cc(O)c2c(=O)cc(-c3ccccc3)oc2c1)c1ccc(F)cc1`, the Blood glucose is 458.2 mg/dL in experiment [4] and 362.5 mg/dL in experiment [5]. The Ratio in experiment [2] was 79.3.
